According to patent publication EP0017484A1, “2-Imidazoline derivatives, process for the preparation thereof and the pharmaceutical composition of the same” (FUJISAWA PHARMACEUTICAL CO., LTD., priority 1979, dated 1980):

Assays:
Sprague-Dawley rats = assay: Anti-inflammatory activity: carrageenin hind paw edema; assay type: in vivo; conditions: 100 mg/kg orally 60 minutes before carrageenin (1.5%, 0.1 ml); paw weight after 3 hours versus control animals
Experimental: Ten Sprague-Dawley rats were used per group. The right hind paw of the rat was injected subcutaneously under the plantar surface with 0.1 ml of carrageenin (1.5%). After 3 hours, the animals were sacrificed. The normal and edematous hind paws were cut off at the tibio-dorsal joint and weighed. The difference in the weight of edematous paw and that of normal paw was a measure of the edema. The test compound (100 mg/kg) was administered orally 60 minutes before the irritating agent. Paw swelling of treated animals was compared with that of control animals.

male ddy strain mice = assay: Analgesic activity: acetic acid writhing syndrome; assay type: in vivo; conditions: Mus musculus, po; orally 60 minutes before i.p. 0.6% acetic acid; writhing observed from 3 to 13 minutes; Litchfield-Wilcoxon method
Experimental: Ten male ddy strain mice were used for each dose. To estimate the frequency of writhing syndrome, the animals were observed from 3 to 13 minutes after an intraperitoneal injection of 0.2 ml/10 g of 0.6% acetic acid. The drugs were given orally 60 minutes before acetic acid. The frequency of writhing syndrome in the treated animals was compared with that in the non-treated control animals.
The ED50 value was calculated according to Litchfield-Wilcoxon method.

Compound | Inhibitory effect (Sprague-Dawley rats) | ED50 (male ddy strain mice)
Cc1ccc(NC2=NCCN2)c(Oc2ccccc2)c1 [2-(2-Phenoxy-4-methylphenyl)amino-2-imidazoline] | 48.4% | –
COc1cc(Oc2ccccc2NC2=NCCN2)cc(OC)c1OC [2-[2-(3,4,5-Trimethoxyphenoxy)phenyl]amino-2-imidazoline] | – | 50.1 mg/kg
